Data as given in US7049289B1, “Labelled glutamine and lysine analogues” (Amersham PLC, priority 1998, dated 2006).
Like-named read-outs stand apart in the source and are kept apart here. Where a SMILES comes first, the peptide text is derived from it. The star is where a group is joined. X1 = CC(=NO)C(C)(C)NCC(C)(CNC(C)(C)C(C)=NO)CN*; Cbz = O=C(OCc1ccccc1)*

Columns and labels:
[1] = In vitro plasma stability (human plasma)
Protocol: (§1) To a portion of compound (50 μl, 10 MBq/ml) was added an equal volume of plasma (rat or human) or saline. The mixtures were incubated at 37° C. and the stability measured by HPLC (system C) at 0, 30 and 120 minutes. The saline dilution acted as a control.

[2] = Incorporation into clots induced in a rat model (rat inferior vena cava model); assay type: in vivo, rat (Male Wistar); details: for % id/g (clot) / Rel. Conc. (cpm/g of clot by dose/g animal): sacrificed after 60 min
In short: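 Male Wistar rats (250–350 g) under 15% urethane anaesthesia, with the vena cava isolated by laparotomy. Compounds given 5 min (fresh clot) or 60 min (aged clot) after clot induction; clot, blood, lung and heart removed 60 min later, weighed and counted. Uptake expressed as cpm/g clot per dose/g animal and as clot-to-background tissue ratio.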

[3] = In vitro plasma stability (rat plasma)
Protocol: as §1

[4] = target: T1, fibrin (in vitro human plasma clot) (Homo sapiens, UniProt P02671+P02675+P02679); assay: Incorporation into human plasma clots in vitro; assay type: biochemical; details: for % specific uptake: % retained (with thrombin) - % retained (no thrombin); for % retained (no thrombin): control without thrombin and calcium chloride (non-specific binding); for % retained (with thrombin): human plasma clot, 60 minutes, ca. 20° C.
T1 construct: about 400 μl of human plasma containing the radiolabelled substrate; from tissue; host or cells: human plasma, clotted in vitro with added thrombin and calcium chloride
T1 sequence (P02671 20-644 isoform P02671-2 limits assumed): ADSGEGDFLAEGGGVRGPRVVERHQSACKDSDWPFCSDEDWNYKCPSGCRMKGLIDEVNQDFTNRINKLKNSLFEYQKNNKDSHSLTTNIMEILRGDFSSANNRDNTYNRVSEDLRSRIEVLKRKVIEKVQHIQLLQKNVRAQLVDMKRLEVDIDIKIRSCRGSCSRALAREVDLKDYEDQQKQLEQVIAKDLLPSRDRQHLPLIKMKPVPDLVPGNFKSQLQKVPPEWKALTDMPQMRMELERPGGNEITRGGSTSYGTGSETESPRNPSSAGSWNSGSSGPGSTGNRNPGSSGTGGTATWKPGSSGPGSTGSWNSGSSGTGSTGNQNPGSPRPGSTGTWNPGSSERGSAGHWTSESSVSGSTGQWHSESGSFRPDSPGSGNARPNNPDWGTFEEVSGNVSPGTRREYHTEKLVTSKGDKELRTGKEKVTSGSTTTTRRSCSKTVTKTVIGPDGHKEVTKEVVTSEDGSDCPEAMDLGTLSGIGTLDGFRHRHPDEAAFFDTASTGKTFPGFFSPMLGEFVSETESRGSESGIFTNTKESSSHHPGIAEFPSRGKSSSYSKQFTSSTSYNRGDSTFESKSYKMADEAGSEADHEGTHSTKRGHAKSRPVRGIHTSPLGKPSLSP
T1 sequence (P02675 45-491 limits assumed): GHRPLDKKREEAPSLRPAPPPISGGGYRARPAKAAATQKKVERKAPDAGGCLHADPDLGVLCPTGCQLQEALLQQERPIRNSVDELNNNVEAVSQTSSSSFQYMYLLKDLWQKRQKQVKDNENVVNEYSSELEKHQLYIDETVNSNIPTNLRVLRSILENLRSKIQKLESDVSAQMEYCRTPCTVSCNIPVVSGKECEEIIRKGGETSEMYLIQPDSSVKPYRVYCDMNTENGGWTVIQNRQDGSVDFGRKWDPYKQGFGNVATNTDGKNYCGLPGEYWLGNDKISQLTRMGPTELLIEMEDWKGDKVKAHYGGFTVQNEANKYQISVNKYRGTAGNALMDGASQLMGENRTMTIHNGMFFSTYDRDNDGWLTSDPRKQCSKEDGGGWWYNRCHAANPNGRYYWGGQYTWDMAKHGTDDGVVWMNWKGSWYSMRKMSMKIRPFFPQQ
T1 sequence (P02679 27-437 isoform P02679-2 limits assumed): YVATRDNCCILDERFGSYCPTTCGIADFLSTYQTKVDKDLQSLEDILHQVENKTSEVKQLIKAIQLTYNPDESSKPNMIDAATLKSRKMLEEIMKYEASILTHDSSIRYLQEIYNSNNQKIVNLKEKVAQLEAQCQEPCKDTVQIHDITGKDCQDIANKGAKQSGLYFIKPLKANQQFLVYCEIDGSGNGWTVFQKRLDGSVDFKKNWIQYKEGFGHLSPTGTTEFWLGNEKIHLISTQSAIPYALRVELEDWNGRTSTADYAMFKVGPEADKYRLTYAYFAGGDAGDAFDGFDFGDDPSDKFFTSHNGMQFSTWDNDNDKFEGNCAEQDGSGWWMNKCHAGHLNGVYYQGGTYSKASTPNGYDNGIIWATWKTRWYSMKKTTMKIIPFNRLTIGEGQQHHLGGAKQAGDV
In short: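 Fibrin incorporation is expressed as the fraction of total radioactivity retained with filtered clots, corrected for non-specific binding in controls lacking thrombin and calcium chloride. Clotting was induced by thrombin in Ca2+-containing Tris-buffered saline (pH 7.5) with human plasma carrying about 10 kBq/ml tracer, for 60 min at ambient temperature before EDTA quench.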

[5] = set-up: species or system rat (Male Wistar); details: rat, in vivo; for % ID Blood / % ID GI Tract / % ID Heart / % ID Kidney / % ID Liver / % ID Lung / % ID Muscle / % ID Urine: iv
Protocol: The resolution of a clot image is dependant on the combination of rate of incorporation of the radiopharmaceutical and its blood/tissues clearance rate. For this reason the biodistribution of several compounds has been determined in rats. Male Wistar (100–150 g) rats were injected i.v. with 0.1–0.2 ml of radiolabelled tracer solution (8 MBq/ml) and dissected at different times post-injection. The % ID in each of the selected tissues was measured. Some animals were kept in metabolism cages to be able to determine the % ID excreted in urine and faeces. The dissection times used for the agent were 15, 30, 60, 240 min. Data are shown as mean of % ID (n=3).

[6] = rat, plasma, 2 h
Protocol: as §1

[7] = human, plasma, 2 h
Protocol: as §1

[8] = Imaging of clots induced in a rat model (jugular vein); assay type: in vivo, rat (male Wistar); details: planar gamma camera images 15–180 min p.i.
Protocol: Clots were induced in male Wistar rats (250–350 g) as described in Example 17, with the exception that for these experiments the platinum wire was located in the jugular vein. The compounds were injected 60 min […] and planar images acquired between 15–180 min p.i. A Park medical Isocam I gamma camera was used for these experiments, 300K or 150K counts were of the thorax were collected using a LEUHR or a LEPH collimator. Clots were visualised from 15 min p.i.

[9] = ^125I radiolabelled; cited from earlier work
[10] = Aged Clots: injected 60 min post-induction
[11] = Fresh Clots: injected 5 min post-induction

CC(=NO)C(C)(C)NCC(C)(CNC(=O)CNC(=O)[C@H](CCCCN)NC(=O)[C@H](CC(C)C)NC(=O)[C@H](CC(C)C)NC(=O)[C@@H](NC(=O)[C@H](Cc1ccc(O)cc1)NC(=O)[C@@H]1CCCN1C(=O)[C@H](CO)NC(=O)[C@@H](NC(=O)[C@H](CCC(N)=O)NC(=O)[C@H](CCC(=O)O)NC(=O)[C@H](CCC(N)=O)NC(=O)[C@H](CC(N)=O)NC(=O)OCc1ccccc1)C(C)C)[C@@H](C)O)CNC(C)(C)C(C)=NO (some centres unmarked) [^99mTc-Cmpd 7, metal not drawn] (Cbz-NQEQVSPYTLLKG-X1; C-terminus assumed)
remaining at 2 h [1]: > 90%
Clot/blood ([2]; Aged Clots): 9
Clot/heart ([2]; Aged Clots): 15
Clot/liver ([2]; Aged Clots): 3
Clot/lung ([2]; Aged Clots): 7
% id/g (clot) [2, 10]: 2.1 ± 0.3 % id/g
Rel. Conc. (cpm/g of clot by dose/g animal) [2, 10]: 6.5 ± 1.3
Clot/blood ([2]; Fresh Clots): 15
Clot/heart ([2]; Fresh Clots): 21
Clot/liver ([2]; Fresh Clots): 6
Clot/lung ([2]; Fresh Clots): 11
% id/g (clot) [2, 11]: 4.8 ± 1.3 % id/g
Rel. Conc. (cpm/g of clot by dose/g animal) [2, 11]: 14.5 ± 4.4
remaining at 2 h [3]: > 90%
% specific uptake [4]: 40.6%
% retained (no thrombin) [4]: 0.7%
% retained (with thrombin) [4]: 41.3%

Ac-NQEQVSPYTLLKG-Pn44 (also: 99mTc complex) [^99mTc-Cmpd 3]
t1/2 (blood clearance, biological half life) [5]: 2 h
% ID Blood ([5]; 0.25 h): 5.3 % ID
% ID GI Tract ([5]; 0.25 h): 13.5 % ID
% ID Heart ([5]; 0.25 h): 0.2 % ID
% ID Kidney ([5]; 0.25 h): 7.6 % ID
% ID Liver ([5]; 0.25 h): 6.2 % ID
% ID Lung ([5]; 0.25 h): 0.7 % ID
% ID Muscle ([5]; 0.25 h): 14.7 % ID
% ID Urine ([5]; 0.25 h): 14.9 % ID
% ID Blood ([5]; 0.5 h): 1.8 % ID
% ID GI Tract ([5]; 0.5 h): 15.1 % ID
% ID Heart ([5]; 0.5 h): 0.1 % ID
% ID Kidney ([5]; 0.5 h): 4.9 % ID
% ID Liver ([5]; 0.5 h): 4.1 % ID
% ID Lung ([5]; 0.5 h): 0.4 % ID
% ID Muscle ([5]; 0.5 h): 10.4 % ID
% ID Urine ([5]; 0.5 h): 34.3 % ID
% ID Blood ([5]; 1 h): 1.6 % ID
% ID GI Tract ([5]; 1 h): 18.0 % ID
% ID Heart ([5]; 1 h): 0.1 % ID
% ID Kidney ([5]; 1 h): 4.6 % ID
% ID Liver ([5]; 1 h): 4.0 % ID
% ID Lung ([5]; 1 h): 0.3 % ID
% ID Muscle ([5]; 1 h): 5.1 % ID
% ID Urine ([5]; 1 h): 37.0 % ID
% ID Blood ([5]; 4 h): 0.6 % ID
% ID GI Tract ([5]; 4 h): 20.7 % ID
% ID Heart ([5]; 4 h): 0.04 % ID
% ID Kidney ([5]; 4 h): 3.4 % ID
% ID Liver ([5]; 4 h): 3.0 % ID
% ID Lung ([5]; 4 h): 0.3 % ID
% ID Muscle ([5]; 4 h): 2.9 % ID
% ID Urine ([5]; 4 h): 42.0 % ID
% intact at 120 mins [6]: >90%
% intact at 120 mins [7]: >90%
Clot/blood ([2]; Aged Clots): 8
Clot/heart ([2]; Aged Clots): 23
Clot/liver ([2]; Aged Clots): 5
Clot/lung ([2]; Aged Clots): 11
% id/g (clot) [2, 10]: 2.1 ± 0.8 % id/g
Rel. Conc. (cpm/g of clot by dose/g animal) [2, 10]: 6.2 ± 2.2
Clot/blood ([2]; Fresh Clots): 10
Clot/heart ([2]; Fresh Clots): 17
Clot/liver ([2]; Fresh Clots): 6
Clot/lung ([2]; Fresh Clots): 8
% id/g (clot) [2, 11]: 1.4 ± 0.4 % id/g
Rel. Conc. (cpm/g of clot by dose/g animal) [2, 11]: 5.1 ± 1.2
% specific uptake [4]: 39.0%
% retained (no thrombin) [4]: 0.3%
% retained (with thrombin) [4]: 39.3%

Ac-NQEQVSPYTLLKG-Pn216 (also: 99mTc complex) [^99mTc-Cmpd 5]
suitability for imaging clots (in words) [8]: suitable for imaging clots
% intact at 120 mins [6]: >90%
% intact at 120 mins [7]: >90%
Clot/blood ([2]; Aged Clots): 13
Clot/heart ([2]; Aged Clots): 33
Clot/liver ([2]; Aged Clots): 24
Clot/lung ([2]; Aged Clots): 31
% id/g (clot) [2, 10]: 3.6 ± 1.7 % id/g
Rel. Conc. (cpm/g of clot by dose/g animal) [2, 10]: 11 ± 5.1
Clot/blood ([2]; Fresh Clots): 21
Clot/heart ([2]; Fresh Clots): 51
Clot/liver ([2]; Fresh Clots): 43
Clot/lung ([2]; Fresh Clots): 23
% id/g (clot) [2, 11]: 6.0 ± 2.1 % id/g
Rel. Conc. (cpm/g of clot by dose/g animal) [2, 11]: 16 ± 5.8
% specific uptake [4]: 35.3%
% retained (no thrombin) [4]: 0.2%
% retained (with thrombin) [4]: 35.5%

NQEQVSPYTLTLLK [synthetic analogue of the alpha-2 antiplasmin N-terminal peptide, WO 89/00051]
uptake in thrombin clots in vitro (in words) [9]: taken up in thrombin clots in vitro
